Article PMC8986850, “Development and exploration of novel substituted thiosemicarbazones as inhibitors of aldose reductase via in vitro analysis and computational study” (Scientific Reports, 2022)

Tests used:
human AKR1B1 (hAKR1B1) = molecular target: T1, human AKR1B1 (hAKR1B1) (Homo sapiens, UniProt P15121); assay: Inhibition of expressed human AKR1B1 (E. coli BL21 (DE3)); type: biochemical; conditions: human AKR1B1 expressed in E. coli BL21 (DE3), mean ± SEM of three measurements
T1 construct: made in house; host or cells: E. coli BL21 (DE3)
Method: For the enzyme inhibition assay, ALR2 and ALR1 were extracted from bovine sources (ALR2 from eyes and ALR1 from kidneys). Moreover, inhibitions studies were also carried out on the expressed ALR2 (human AKR1B1) and inhibition data for ALR2- bovine source and expressed enzyme was compared and analyzed. The protocols for enzyme extraction and expression in the bacterial system are included in the section of “Supporting information”. […] For the purpose of comparison and validation of enzyme inhibition data, these compounds were tested against human AKR1B1 (hAKR1B1) expressed in E. coli BL21 (DE3).
For the determination of enzyme activity of ALR1 and ALR2, 100 µL of reaction mixture was composed of 20 µL of buffer (100 mM sodium phosphate, pH 6.2), 30 µL of enzyme extract, 20 µL of substrate (10 mM), 20 µL of cofactor (0.1 mM of NADPH) and 10 µL of test compound (1 mM)[6],[21]. […] Similar protocols were followed for ALR1 and ALR2, however the substrate was different for each enzyme, with sodium-D-glucoronate and DL-glyceraldehyde used as the substrates for the ALR1 and ALR2 assays, respectively. […] In addition, similar protocols were adopted for human AKR1B1 that was expressed in E. coli BL21 (DE3), though the determined protein concentration was 12 µg/mL for the expressed enzyme. Detailed protocols for the preparation of ALR1, ALR2 and expressed human AKR1B1 can be found in the supporting information.
(§1) The newly synthesized N-substitute thiosemicarbazones (3a-o) were dissolved in 100% DMSO and diluted with deionized water, keeping the DMSO concentration equal to 0.1% in the assay.
The expression plasmid for aldose reductase (pDONR223_AKR1B1_WT) was gift from Addgene in stable culture. Streaking of this culture has been carried out on LB Agar plate then incubated overnight, after growth of colonies , inoculation was performed in LB medium then incubated this medium in shaking incubator at 37 °C. After 48 hours turbidity was measured when OD=0.6 then some of bacterial growth was prepared as 50% glycerol stock. Others are subjected to plasmid isolation following method Miniprep. Meanwhile E. Coli BL21 De3 cells were made competent then transformation with extracted plasmid (AKR1B1) had been carried out heat shock method. Transformed cell ( E.Coli BL21 DE3+AKR1B1) were grown in 37 °C in shaking incubator for 48 hr. The selection for transformed cells was carried out with the help of antibiotic (spectinomycin 50µg/ml). […] For the expression of aldose reductase , E.coli BL21DE3 were induced with of IPTG(Isopropyl-d-thiogalactopyranoside)[3]. […] The expressed enzyme was stabilized by addition 10 mM Tris–HCl buffer, 0.5 mM EDTA, 5 mM β-marcaptoethanol at pH 8.0 and 20% (v/v) glycerol. Cells were lysed with lysis buffer and then precipitation with ammonium sulfate up to 80% saturation was done . the expressed enzyme was dialyzed overnight against tris buffer. Protein quantification was performed following Bradford protein assay. Aliqoutes were stored at -80 refrigerator.

ALR1 = molecular target: T2, ALR1 (Bos taurus, UniProt Q3ZCJ2); assay: ALR1 enzyme inhibition assay (enzyme extracted from calf kidneys); type: biochemical, bovine; conditions: bovine kidney ALR1, 100 µM inhibitor; read-out: I (%, 100 µM) (ALR1)
T2 construct: The calf’s kidneys were obtained after slaughtering and dissection; from tissue; host or cells: calf kidneys
Method: Compounds 3a-o were tested against ALR2 to evaluate their inhibitory potential against aldose reductase whereas selectivity was determined via performing ALR1 inhibition assay. For the enzyme inhibition assay, ALR2 and ALR1 were extracted from bovine sources (ALR2 from eyes and ALR1 from kidneys). Moreover, inhibitions studies were also carried out on the expressed ALR2 (human AKR1B1) and inhibition data for ALR2- bovine source and expressed enzyme was compared and analyzed. The protocols for enzyme extraction and expression in the bacterial system are included in the section of “Supporting information”. […] For the purpose of comparison and validation of enzyme inhibition data, these compounds were tested against human AKR1B1 (hAKR1B1) expressed in E. coli BL21 (DE3). We found a similar pattern of enzyme inhibition for the synthesized compounds against extracted enzyme (ALR2) as well as expressed enzyme (hAKR1B1).
For the determination of enzyme activity of ALR1 and ALR2, 100 µL of reaction mixture was composed of 20 µL of buffer (100 mM sodium phosphate, pH 6.2), 30 µL of enzyme extract, 20 µL of substrate (10 mM), 20 µL of cofactor (0.1 mM of NADPH) and 10 µL of test compound (1 mM)[6],[21]. The reaction mixture without cofactor was incubated at 32°C for 10 min, then the enzymatic reaction was initiated with the addition of NADPH and monitored for 5 minutes. Similar protocols were followed for ALR1 and ALR2, however the substrate was different for each enzyme, with sodium-D-glucoronate and DL-glyceraldehyde used as the substrates for the ALR1 and ALR2 assays, respectively. […] In addition, similar protocols were adopted for human AKR1B1 that was expressed in E. coli BL21 (DE3), though the determined protein concentration was 12 µg/mL for the expressed enzyme. Detailed protocols for the preparation of ALR1, ALR2 and expressed human AKR1B1 can be found in the supporting information.
as §1
The calf’s kidneys were obtained after slaughtering and dissection, dissolved in 3 volumes of sodium phosphate buffer (10mM) which is composed of 2.0 mM EDTA, 2.5mM β-mercaptoethanol, 0.25M solution of sucrose at pH 7.25. First, the homogenisation was carried out then centrifugation of the homogenate was performed at 12000 x g at 0-2^◦C for 30 minutes. The precipitates containing insoluble lipids were discarded and the collected supernatant layer was treated with 40% saturation of ammonium sulphate. This liquid mixture was subjected to centrifugation at 11000 x g at 0-2^◦C for 30 minutes. Now, precipitates were again discarded and supernatant was collected and treated with 50% ammonium sulphate and procedure was repeated in the same manner as in previous step. In the last step, the saturation of ammonium sulphate was increased up to 75% and supernatant was subjected to same parameter of centrifugation. At this final step, precipitates were obtained and supernatant layer was discarded. The obtained material of precipitates was composed of ALR1and redissolved in initial buffer that was used during homogenisation. Finally, material was dialyzed overnight with same buffer system. The dialyzed fractions containing ALR1 were stored at -80^◦C for further use[5].

[1] = DPPH radical scavenging activity; conditions: 100 µM compound, methanolic DPPH 0.025 mg/mL, 517 nm
Method: DPPH (2,2-diphenyl-1-picrylhydrazyl) was used to explore the free radical quenching ability of 3a-o so as to provide a gauge of their antioxidant potential. The experiment was conducted according to a previously reported protocol with slight modifications. Percent free radical scavenging activities (% FRSA) of 3a-o were determined by spectrophotometric analysis at 517 nm using a homogenous mixture of methanolic DPPH (0.025 mg/mL) and a 100 µM solution of the tested compound, with ascorbic acid used as a positive control (Fig. 3).

T2 sequence (Q3ZCJ2 whole entry): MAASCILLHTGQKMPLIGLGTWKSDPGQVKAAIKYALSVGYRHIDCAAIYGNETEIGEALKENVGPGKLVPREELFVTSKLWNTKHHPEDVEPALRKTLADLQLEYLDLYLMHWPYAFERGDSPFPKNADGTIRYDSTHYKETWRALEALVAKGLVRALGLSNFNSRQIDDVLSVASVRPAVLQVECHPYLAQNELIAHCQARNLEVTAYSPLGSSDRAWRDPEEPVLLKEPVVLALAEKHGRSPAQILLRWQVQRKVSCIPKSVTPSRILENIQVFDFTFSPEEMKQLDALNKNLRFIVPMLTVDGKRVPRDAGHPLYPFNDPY

IC50 (human AKR1B1 (hAKR1B1)): 1.36 ± 0.004 µM | inhibition at 100 µM (ALR1): 4.27 to 26.2% | melting point: 180 to 182 °C
Compound: CC(C)(C)c1cc(C=NNC(=S)Nc2ccccc2F)c(O)c(C(C)(C)C)c1 [Compound 3m, 2-(3,5-di-tert-butyl-2-hydroxybenzylidene)-N-(2-fluorophenyl)hydrazine carbothioamide]
% FRSA (percent free radical scavenging activity) [1]: 75.95%
